ChEMBL document CHEMBL4152332, “Discovery and synthesis of novel magnolol derivatives with potent anticancer activity in non-small cell lung cancer” (Eur J Med Chem, 2018)

What was measured:
Mus musculus [1] = experiment: Toxicity in Balb/c mouse implanted with mouse C26 cells assessed as change in body weight at 100 mg/kg, po qd treated for 10 days and measured every 2 days (RVB = 16.4%); assay type: organism-based; conditions: in vivo
NCI-H1975 [2] = experiment: Cell cycle arrest in human NCI-H1975 cells assessed as increase in accumulation at G0/G1 phase after 24 hrs by propidium iodide staining-based flow cytometric analysis; assay type: functional
NCI-H1975 [3] = experiment: Cell cycle arrest in human NCI-H1975 cells assessed as reduction in accumulation at S phase after 24 hrs by propidium iodide staining-based flow cytometric analysis; assay type: functional
NCI-H1975 [4] = experiment: Cell cycle arrest in human NCI-H1975 cells assessed as reduction in accumulation at G2/M phase after 24 hrs by propidium iodide staining-based flow cytometric analysis; assay type: functional
NCI-H1975 [5] = experiment: Cell cycle arrest in human NCI-H1975 cells assessed as accumulation at G2/M phase at 5 uM after 24 hrs by propidium iodide staining-based flow cytometric analysis (reference value: 20.11%); assay type: functional
NCI-H1975 [6] = experiment: Cell cycle arrest in human NCI-H1975 cells assessed as accumulation at G0/G1 phase at 10 uM after 24 hrs by propidium iodide staining-based flow cytometric analysis (reference value: 56.11%); assay type: functional
NCI-H1975 [7] = experiment: Cell cycle arrest in human NCI-H1975 cells assessed as accumulation at G2/M phase at 10 uM after 24 hrs by propidium iodide staining-based flow cytometric analysis (reference value: 20.11%); assay type: functional
NCI-H1975 [8] = experiment: Cell cycle arrest in human NCI-H1975 cells assessed as accumulation at G0/G1 phase at 20 uM after 24 hrs by propidium iodide staining-based flow cytometric analysis (reference value: 56.11%); assay type: functional
NCI-H1975 [9] = experiment: Cell cycle arrest in human NCI-H1975 cells assessed as accumulation at G2/M phase at 20 uM after 24 hrs by propidium iodide staining-based flow cytometric analysis (reference value: 20.11%); assay type: functional
NCI-H1975 [10] = experiment: Induction of apoptosis in human NCI-H1975 cells after 48 hrs by annexin V/FITC-propidium iodide staining-based flow cytometric method; assay type: functional, cell-based
NCI-H1975 [11] = experiment: Induction of apoptosis in human NCI-H1975 cells assessed as early apoptotic cells at 5 uM after 48 hrs by annexin V/FITC-propidium iodide staining-based flow cytometric method ( Rvb = 6.09%); assay type: functional
NCI-H1975 [12] = experiment: Induction of apoptosis in human NCI-H1975 cells assessed as early apoptotic cells at 10 uM after 48 hrs by annexin V/FITC-propidium iodide staining-based flow cytometric method ( Rvb = 6.09%); assay type: functional
NCI-H1975 [13] = experiment: Induction of apoptosis in human NCI-H1975 cells assessed as late apoptotic cells at 10 uM after 48 hrs by annexin V/FITC-propidium iodide staining-based flow cytometric method ( Rvb = 10.4%); assay type: functional
NCI-H1975 [14] = experiment: Induction of apoptosis in human NCI-H1975 cells assessed as necrotic cells at 10 uM after 48 hrs by annexin V/FITC-propidium iodide staining-based flow cytometric method ( Rvb = 1.01%); assay type: functional
NCI-H1975 [15] = experiment: Induction of apoptosis in human NCI-H1975 cells assessed as viable cells at 10 uM after 48 hrs by annexin V/FITC-propidium iodide staining-based flow cytometric method ( Rvb = 82.5%); assay type: functional; conditions: NCI-H1975, 48 h, read-out: Activity
NCI-H1975 [16] = experiment: Induction of apoptosis in human NCI-H1975 cells assessed as necrotic cells at 20 uM after 48 hrs by annexin V/FITC-propidium iodide staining-based flow cytometric method ( Rvb = 1.01%); assay type: functional
NCI-H1975 [17] = experiment: Induction of apoptosis in human NCI-H1975 cells assessed as viable cells at 20 uM after 48 hrs by annexin V/FITC-propidium iodide staining-based flow cytometric method ( Rvb = 82.5%); assay type: functional; conditions: NCI-H1975, 48 h, read-out: Activity
Mus musculus [18] = experiment: Toxicity in Balb/c mouse xenografted with human NCI-H1975 cells assessed as change in body weight at 10 mg/kg, po qd treated for 18 days and measured every 2 days after compound dosing ( Rvb = 2.89%); assay type: organism-based; conditions: in vivo
Mus musculus [19] = experiment: Toxicity in Balb/c mouse xenografted with human NCI-H1975 cells assessed as change in body weight at 30 mg/kg, po qd treated for 18 days and measured every 2 days after compound dosing ( Rvb = 2.89%); assay type: organism-based; conditions: in vivo
Mus musculus [20] = experiment: Toxicity in Balb/c mouse xenografted with human NCI-H1975 cells assessed as change in body weight at 100 mg/kg, po qd treated for 18 days and measured every 2 days after compound dosing ( Rvb = 2.89%); assay type: organism-based; conditions: in vivo
Mus musculus [21] = experiment: Toxicity in Balb/c mouse xenografted with human NCI-H1975 cells assessed as change in body weight at 10 mg/kg, iv treated every 2 days for 9 days and measured every 2 days after compound dosing ( Rvb = 2.89%); assay type: organism-based; conditions: in vivo
NCI-H1975 [22] = experiment: Antitumor activity against human NCI-H1975 cells xenografted in Balb/c mouse assessed as change in tumor mass at 30 mg/kg, po qd treated for 18 days and measured every 2 days after compound dosing relative to control; assay type: functional
NCI-H1975 [23] = experiment: Antitumor activity against human NCI-H1975 cells xenografted in Balb/c mouse assessed as change in tumor mass at 100 mg/kg, po qd treated for 18 days and measured every 2 days after compound dosing relative to control; assay type: functional
NCI-H1975 [24] = experiment: Antitumor activity against human NCI-H1975 cells xenografted in Balb/c mouse assessed as change in tumor mass at 5 mg/kg, iv treated every 2 days for 9 days and measured every 2 days after compound dosing relative to control; assay type: functional
NCI-H1975 [25] = experiment: Antitumor activity against human NCI-H1975 cells xenografted in Balb/c mouse assessed as change in tumor mass at 20 mg/kg, iv treated every 2 days for 9 days and measured every 2 days after compound dosing relative to control; assay type: functional
NCI-H1975 [26] = experiment: Induction of apoptosis in human NCI-H1975 cells assessed as decrease in cyclin E level after 24 hrs by Western blot analysis; assay type: functional, cell-based
NCI-H1975 [27] = experiment: Induction of apoptosis in human NCI-H1975 cells assessed as decrease in cyclin D1 level after 24 hrs by Western blot analysis; assay type: functional, cell-based
NCI-H1975 [28] = experiment: Induction of apoptosis in human NCI-H1975 cells assessed as increase in cleaved PARP level after 48 hrs by Western blot analysis; assay type: functional, cell-based
NCI-H1975 [29] = experiment: Induction of apoptosis in human NCI-H1975 cells assessed as increase in cleaved caspase-3 level after 48 hrs by Western blot analysis; assay type: functional, cell-based
Mus musculus [30] = experiment: Toxicity in Balb/c mouse xenografted with human NCI-H1975 cells assessed as effect on lung morphology at 5 to 20 mg/kg, iv treated every 2 days for 9 days; assay type: organism-based; conditions: in vivo
HCC827 = experiment: Potency index, ratio of IC50 for honokiol to IC50 for test compound for antiproliferative activity against human HCC827 cells after 72 hrs by MTT assay; assay type: functional
NCI-H460 [31] = experiment: Potency index, ratio of IC50 for honokiol to IC50 for test compound for antiproliferative activity against human H460 cells after 72 hrs by MTT assay; assay type: functional
NCI-H1975 [32] = experiment: Potency index, ratio of IC50 for magnolol to IC50 for test compound for antiproliferative activity against human NCI-H1975 cells after 72 hrs by MTT assay; assay type: functional
NCI-H460 [33] = experiment: Potency index, ratio of IC50 for magnolol to IC50 for test compound for antiproliferative activity against human H460 cells after 72 hrs by MTT assay; assay type: functional

`C=CCc1ccc(O)c(-c2cc(CC=C)cc(CN3CCC(N)CC3)c2O)c1` was tested, and the Activity (Mus musculus [1]) was -9.3%, the Activity (NCI-H1975 [2]) was “Dose-dependent effect” and the Activity (NCI-H1975 [3]) was “Dose-dependent effect”. For the same molecule, the Activity (NCI-H1975 [4]) was “Dose-dependent effect”, the Activity (NCI-H1975 [5]) was 13.41% and the Activity (NCI-H1975 [6]) was 67.09%. For the same molecule, the Activity (NCI-H1975 [7]) was 12.73%, the Activity (NCI-H1975 [8]) was 79.45% and the Activity (NCI-H1975 [9]) was 6.13%. The Activity (NCI-H1975 [10]) was “Dose-dependent effect”, the Activity (NCI-H1975 [11]) was 6.68% and the Activity (NCI-H1975 [12]) was 10.1%. The Activity (NCI-H1975 [13]) was 32.8%, the Activity (NCI-H1975 [14]) was 0.4% and the viability at 10 µM (NCI-H1975 [15]) was 56.7%. For the same molecule, the Activity (NCI-H1975 [16]) was 0.35%, the viability at 20 µM (NCI-H1975 [17]) was 3.75% and the Activity (Mus musculus [18]) was 13.3%. It also gave an Activity (Mus musculus [19]) of 8.85%, an Activity (Mus musculus [20]) of -5.72% and an Activity (Mus musculus [21]) of 8.89%. The Activity (NCI-H1975 [22]) was 59.3%, the Activity (NCI-H1975 [23]) was 61.2% and the Activity (NCI-H1975 [24]) was 49.2%. For the same molecule, the Activity (NCI-H1975 [25]) was 65.8%, the Activity (NCI-H1975 [26]) was “Dose-dependent effect” and the Activity (NCI-H1975 [27]) was “Dose-dependent effect”. For the same molecule, the Activity (NCI-H1975 [28]) was “Dose-dependent effect”, the Activity (NCI-H1975 [29]) was “Dose-dependent effect” and the Activity (Mus musculus [30]) was “Non-Toxic”. For the same molecule, the “Ratio IC50” value (HCC827) was 4, the “Ratio IC50” value (NCI-H460 [31]) was 4 and the “Ratio IC50” value (NCI-H1975 [32]) was 8. For the same molecule, the “Ratio IC50” value (NCI-H460 [33]) was 8.
